Test results taken from patent US12146004B2, “Polymyxin compounds and uses thereof” (priority 2014, dated 2024).
In brackets after ≈: the same amount, converted by molar mass. Bridge positions count the residues as written; N and C are the ends. Square brackets hold non-standard residues; d marks the D form. Peptide text beside a SMILES is read from it. * marks the point of attachment. ξ: configuration not given here. dBip = N[C@H](Cc1ccc(-c2ccccc2)cc1)C(=O)O; Thr(3ξ) = CC(O)[C@H](N)C(=O)O; X1 = CC(C)CN1CCNC[C@H]1C(=O)*; Dab = NCC[C@H](N)C(=O)O; Dap = NC[C@H](N)C(=O)O

Assays:
Assay type in all cases: cell-based
HK-2 cells = tested on: HK-2 cells
Text: Values are reported relative to Polymyxin B.

[1] = tested on: Escherichia coli, Pseudomonas aeruginosa, Klebsiella pneumoniae and Acinetobacter baumannii; experiment: Susceptibility testing, comparisons in words across the Gram negative pathogens; conditions: versus comparator compound
Description: To evaluate the potency and spectrum of the compounds, susceptibility testing was performed against up to nine strains of each of the Gram negative pathogens, Escherichia coli, Pseudomonas aeruginosa, Klebsiella pneumoniae and Acinetobacter baumannii.

Escherichia coli = tested on: Escherichia coli
Summary of the method: (§1)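 Strain panels of up to nine per species, with resistant and Polymyxin-tolerant strains included, were used for susceptibility testing; read-out was MIC (μg/mL).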

Pseudomonas aeruginosa = tested on: Pseudomonas aeruginosa
Summary of the method: as §1

Klebsiella pneumoniae = tested on: Klebsiella pneumoniae
Summary of the method: as §1

Acinetobacter baumannii = tested on: Acinetobacter baumannii
Summary of the method: as §1

| HK-2 IC50 (HK-2 cells) | MIC E. coli 058 (Escherichia coli) | MIC E. coli 059 (Escherichia coli) | MIC E. coli 060 (Escherichia coli) | MIC E. coli 061 (Escherichia coli) | MIC E. coli ATCC 25922 (Escherichia coli) | MIC P. aeruginosa 068 (Pseudomonas aeruginosa) | MIC P. aeruginosa 070 (Pseudomonas aeruginosa) | MIC P. aeruginosa ATCC 27853 (Pseudomonas aeruginosa) | MIC K. pneumoniae 063 (Klebsiella pneumoniae) | MIC K. pneumoniae 064 (Klebsiella pneumoniae) | MIC K. pneumoniae 065 (Klebsiella pneumoniae) | MIC K. pneumoniae 066 (Klebsiella pneumoniae) | MIC K. pneumoniae 067 (Klebsiella pneumoniae) | MIC K. pneumoniae ATCC 4352 (Klebsiella pneumoniae) | MIC A. baumanii 053 (Acinetobacter baumannii) | MIC A. baumanii 056 (Acinetobacter baumannii) | MIC A. baumanii ATCC BAA-747 (Acinetobacter baumannii) | SMILES | activity against polymyxin resistant strains [1] |
| --- | --- | --- | --- | --- | --- | --- | --- | --- | --- | --- | --- | --- | --- | --- | --- | --- | --- | --- | --- |
| 36 µg/mL | 1 µg/mL (≈ 0.838 µM) | 1 µg/mL (≈ 0.838 µM) | 2 µg/mL (≈ 1.68 µM) | 8 µg/mL (≈ 6.7 µM) | 0.06 µg/mL (≈ 0.0503 µM) | 4 µg/mL (≈ 3.35 µM) | 8 µg/mL (≈ 6.7 µM) | 0.5 µg/mL (≈ 0.419 µM) | 16 µg/mL (≈ 13.4 µM) | 4 µg/mL (≈ 3.35 µM) | 0.5 µg/mL (≈ 0.419 µM) | 8 µg/mL (≈ 6.7 µM) | 32 µg/mL (≈ 26.8 µM) | 0.25 µg/mL (≈ 0.209 µM) | 32 µg/mL (≈ 26.8 µM) | 4 µg/mL (≈ 3.35 µM) | 0.125 µg/mL (≈ 0.105 µM) | CC(C)C[C@@H]1NC(=O)[C@@H](Cc2ccc(-c3ccccc3)cc2)NC(=O)[C@H](CCN)NC(=O)[C@@H](NC(=O)[C@H](CN)NC(=O)[C@@H](NC(=O)[C@@H]2CNCCN2CC(C)C)C(C)O)CCNC(=O)[C@H]([C@@H](C)O)NC(=O)[C@H](CCN)NC(=O)[C@H](CCN)NC1=O (some centres unmarked) [Example 5] (X1-[Thr(3ξ)][Dap][Dab][Dab][dBip]L[Dab][Dab]T; lactam 3-C) | significantly improves of activity against resistant strains |
| 32 µg/mL | 0.5 µg/mL (≈ 0.419 µM) | 0.5 µg/mL (≈ 0.419 µM) | 0.5 µg/mL (≈ 0.419 µM) | 2 µg/mL (≈ 1.68 µM) | 0.5 µg/mL (≈ 0.419 µM) | 1 µg/mL (≈ 0.839 µM) | 2 µg/mL (≈ 1.68 µM) | 1 µg/mL (≈ 0.839 µM) | 4 µg/mL (≈ 3.35 µM) | 2 µg/mL (≈ 1.68 µM) | 1 µg/mL (≈ 0.839 µM) | 1 µg/mL (≈ 0.839 µM) | 8 µg/mL (≈ 6.71 µM) | 0.5 µg/mL (≈ 0.419 µM) | 2 µg/mL (≈ 1.68 µM) | 0.5 µg/mL (≈ 0.419 µM) | 0.5 µg/mL (≈ 0.419 µM) | CC(C)CC1CNCC(C(=O)N[C@H](C(=O)N[C@@H](CN)C(=O)N[C@H]2CCNC(=O)[C@H]([C@@H](C)O)NC(=O)[C@H](CCN)NC(=O)[C@H](CCN)NC(=O)[C@H](CC(C)C)NC(=O)[C@@H](Cc3ccc(-c4ccccc4)cc3)NC(=O)[C@H](CCN)NC2=O)C(C)O)C1 (single isomer, unassigned; isomer 2) [Example 4, (trans-5-(isobutyl-piperidine)-3-carbonyl L-Thr-L-Dap-polymyxin [D-(4-phenyl)Phe]-6]heptapeptide. Isomer 2] | significantly improves of activity against resistant strains |
